Marks after values point to notes of the source that are not given here.
Experiments:
[1] = system: outer hair cells in organ of Corti explants; assay: Organ of Corti explant assay, immuno-staining and count of outer hair cells; format: cell-based, mice; conditions: explants cultured four days at 1 μM; relative to negative control-treated samples
Protocol: The bulla and surrounding tissue from the petrous portion of the temporal bone are removed from 1 to 4 day-old postnatal mice (transgenic strain: Atoh1-driven nGFP; Lumpkin E A, et al., Gene Expr Patterns, 2003, (36):389-95) of both sexes. Organs of Corti are dissected in Hanks solution, the spiral ligament is removed and the explants are placed on cover slips coated with poly-L-ornithine (0.01%, Sigma) and laminin ([…], Becton Dickinson) to obtain a preparation with a flat cochlear surface. Each cochlear explant is then placed in a single well of a 24 well plate (Falcon) and cultured in DMEM (Invitrogen) with 5% fetal bovine serum, 5% horse serum, and penicillin-streptomycin (LifeTechnologies). Experimental compounds are added with medium on Day 0 and replaced every 2-3 days. All cultures are maintained in a 5% CO2 humidified incubator at 37° C.
Following the explant culture, tissues are fixed in the 24 well plate with 200 μl Cytofix/Cytoperm (BD) for 30 min, rinsed with PBS containing TritonX100 (PBST), and stained with 200 μl of primary antibody solution, consisting of 4% normal donkey serum in PBST with goat anti-GFP (1:2500; AbCAM, ab5450) and rabbit anti-myosinVIIa (1:1000; Proteus Bioscience #25-6790) for 1 hour. […] Blinded cell counts are measured in five separate experiments. […]

[2] = system: hair cell markers Atoh1, Pou4f3, Myo7A in gentamicin-damaged organ of Corti explants; assay: Organ of Corti explant, gene expression analysis after ototoxic (gentamicin) damage; format: cell-based, mice; conditions: 5 μM after gentamicin (100 μM) damage, n = 11
Protocol: A variation of the organ of Corti organotypic explant culture is used to model hair cell regeneration in response to subsequent compound treatment after ototoxic damage. This damage model is carried out according to the method described in Korrapati et al., PLOSOne, 2013, 8(8), e73276 where a 95% reduction in mid-apical hair cells was reported. On Day 0, to damage and selectively kill hair cells within the organ of Corti explant, aminoglycoside treatment (gentamicin (100 μM)) is added for 18-24 hours. On Day 1, gentamicin is removed and treatment with Compound 1, Isomer 2 and Compound 2, Isomer 2 at 5 μM began. Explant culture continues for 4 days total at which point the culture is prepared for the qRT-PCR protocol described above. Visible confirmation of gentamicin-induced damage is easily observed between cultures treated with negative control compounds. However, quantitative measurement for the response to Compound 1, Isomer 2 and Compound 2, Isomer 2 treatment following ototoxic damage obtained by qRT-PCR measured increases in gene expression for prosensory hair cell markers Atoh1 and Pou4f3 and the hair cell marker Myo7A.
Data represent the percent increase in gene expression relative to negative control-treated samples with the gentamicin-induced hair cell damage. (*, significant difference from negative control, p<0.05)

| Structure (SMILES) | Percent Increase in hair cells [1] [%] | % Induction Over Control-treated Damaged Organ of Corti, Atoh1 (Mean ± SEM) [2] | % Induction Over Control-treated Damaged Organ of Corti, Myo7A (Mean ± SEM) [2] | % Induction Over Control-treated Damaged Organ of Corti, Pou4f3 (Mean ± SEM) [2] |
| --- | --- | --- | --- | --- |
| COc1ccc2c(c1)N1CCC(C)(C)C1=CC(=O)C2NC(=O)[C@H](C)NC(=O)CCC(F)(F)F (single isomer, unassigned) [Compound 1, Isomer 2] | 14.15 ± 1.9 | 242 ± 16; % | 102 ± 18; 0.0522% | 114 ± 25; <0.05* % |
| C[C@H](NC(=O)CCC(F)(F)F)C(=O)NC1C(=O)C=C2N(CCC2(C)C)c2ncccc21 (single isomer, unassigned) [Compound 2, Isomer 2] | 17.26 ± 1.2 | 169 ± 24; <0.05* % | 52 ± 15; not signif. % | 28 ± 11; 0.0633% |

From patent US10450317B2, “Notch pathway signaling inhibitor compounds” (Eli Lilly and Company, priority 2015, dated 2019)
